The text below walks through data of patent US6214834A, “Integrin inhibitor prodrugs” (Dupont Pharmaceuticals Company, priority 1998, dated 2001).

Values joined by “and” are separate entries in the source; they are usually repeats but may differ in a detail not shown here. Equal values may be shown once. Read-outs that look alike come from different tables or passages of the source.

Series [1] is described as follows: Free solution electrophoretic mobility by capillary electrophoresis. The series is classed as physicochemical. The following applies: for Electrophoretic Mobility: 400 V/cm, 25° C. On the procedure:
To obtain a preliminary indication of the feasibility of transdermal iontophoretic delivery and the possible dependence on pH, the solution mobilities of the methyl and choline esters were evaluated using capillary electrophoresis. Free solution mobilities were determined using a capillary electrophoresis instrument equipped with a u.v. detector and a cationic amine capillary column of 57 cm total length, 50 cm length to detector, 370 μm o.d.,50 μm i.d. Buffers used were pH 4.5 acetate, pH 6.0 MES and pH 8.0 TRIS. All buffer concentrations were 50 mM. Elution was at 400 V/cm and 25° C., and detection was at 214 nm. Compounds SM192 and SD209 were examined. Structures are given in Scheme 16. For each compound, 2 mg/mL stock solutions were prepared and diluted 1:1 with the running buffer. Therefore, electrophoretic mobility of compound SD209 is about two-fold higher than that of compound SM192 at all pH values examined.

Series [2] can be described thus: Surface tension measurements (DuNouy tensiometer). The series is classed as physicochemical. The conditions noted are these: for Surface Tension: pH ~4, 22° C. On the procedure: Surface activity behavior of the two prodrugs, SM192 and SD209 was examined using tensiometry. Stock solutions of each were prepared at a concentration of 0.06 M in water and dilutions were made using an aqueous solution of the corresponding salt counterion of the prodrug adjusted to a pH ~4. Surface tension measurements were run at 22° C. on a DuNouy tensiometer. Three measurements were run on each solution concentration.

Series [3] can be described thus: Partition coefficient estimated by HPLC method. It counts as physicochemical. The conditions noted are these: estimated using an HPLC method; read-out: HPLC Log P.
A short description of series [4]: Plasma concentrations after i.v. bolus of SD209 in pigs (in vivo conversion of prodrug). The arrangement: species or system Yorkshire domestic swine. On the procedure: Data indicating conversion of the prodrug SD209 to the drug, SM256 once administered into circulation in vivo is represented in Table 5. The data in Table 5 id generated from intravenous administration of the prodrug, SD209, in pigs.
SD209 was injected intravenously at a dose of 0.5 mg/kg and plasma was seperated after blood sampling at different intervals. Following solid phase extraction of the plasma, residues were chromatographed on a supelcosil ABZ HPLC column and detected by positive ion electrospray MS/MS using a Sciex API 300. This combination provides a specific assay for both SD209 and SM256. The linear range of the assay for SM256 was from 1 ng/ml to 2000 ng/ml. Plasma concentration data for both pigs are provided below

Where [5] appears, read: pig 1, Time 10.0 hr, i.v. bolus 0.5 mg/kg of SD209.
[6] abbreviates: pig 1, Time 14.0 hr, i.v. bolus 0.5 mg/kg of SD209.
The mark [7] stands for this setting: pig 1, Time 24.0 hr, i.v. bolus 0.5 mg/kg of SD209.
The mark [8] stands for this setting: pig 2, Time 7.0 hr, i.v. bolus 0.5 mg/kg of SD209.
The mark [9] stands for this setting: pig 2, Time 10.0 hr, i.v. bolus 0.5 mg/kg of SD209.
The mark [10] stands for this setting: pig 2, Time 14.0 hr, i.v. bolus 0.5 mg/kg of SD209.
Setting [11] is: pig 2, Time 24.0 hr, i.v. bolus 0.5 mg/kg of SD209.

Turning to `Cc1cc(C)c(S(=O)(=O)NC(CNC(=O)c2ccc3c(cnn3CCCNc3ncc[nH]3)c2)C(=O)OCC[N+](C)(C)C)c(C)c1` (centres unmarked) [SD209], the “electrophoretic mobility relative to compound SM192” value in series [1] (higher than SM192 at all pH values examined) is on record as “about two-fold”. In addition, the “Electrophoretic Mobility” value in series [1] (pH 4.5 acetate buffer 50 mM) is listed as 3.2 (cm^2 /v/sec) × 10^-4; in series [1] (pH 6.0 MES buffer 50 mM), 3.0 (cm^2 /v/sec) × 10^-4; in series [1] (pH 8.0 TRIS buffer 50 mM), 2.3 (cm^2 /v/sec) × 10^-4. Also, the “Surface Tension” value is on record as 72.6 ± 0.06 dynes/cm in series [2] (Concentration 0.0015 M); 72.4 ± 0.06 dynes/cm in series [2] (Concentration 0.003 M); 72.2 ± 0.2 dynes/cm in series [2] (Concentration 0.010 M); 67.4 ± 0.6 dynes/cm in series [2] (Concentration 0.015 M); 65.5 ± 0.5 dynes/cm in series [2] (Concentration 0.030 M); 61.9 ± 0.4 dynes/cm in series [2] (Concentration 0.045 M). For the same molecule, the “Surface Tension” value turned out to be 63.7 ± 0.4 dynes/cm in series [2] (Concentration 0.054 M) and 61.2 ± 0.3 dynes/cm in series [2] (Concentration 0.06 M). The “critical micelle concentration (not attained up to)” value in series [2] (no CMC attained even at the highest concentrations) is reported as greater than 0.6 M. Besides, the chromatographic logP in series [3] was 0.95. For the same molecule, the plasma conc. result in series [4] (pig 1, Time 1.0 hr, i.v. bolus 0.5 mg/kg of SD209) is reported as “BQL”; in series [4] (pig 1, Time 3.0 hr, i.v. bolus 0.5 mg/kg of SD209), “BQL”; in series [4] (pig 1, Time 5.0 hr, i.v. bolus 0.5 mg/kg of SD209), “BQL”; in series [4] (pig 1, Time 7.0 hr, i.v. bolus 0.5 mg/kg of SD209) it was “BQL”; in series [4] (setting [5]), “BQL”; in series [4] (setting [6]) it was “BQL”. Moreover, the plasma conc. entry in series [4] (setting [7]) was “BQL”; in series [4] (pig 2, Time 1.0 hr, i.v. bolus 0.5 mg/kg of SD209), “BQL”; in series [4] (pig 2, Time 2.0 hr, i.v. bolus 0.5 mg/kg of SD209) it was “BQL”; in series [4] (pig 2, Time 3.0 hr, i.v. bolus 0.5 mg/kg of SD209), “BQL”; in series [4] (pig 2, Time 5.0 hr, i.v. bolus 0.5 mg/kg of SD209) it was “BQL”; in series [4] (setting [8]), “BQL”. The plasma conc. result in series [4] (setting [9]), in series [4] (setting [10]) and in series [4] (setting [11]) was “BQL” each time. Moreover, the concentration at 0 h in series [4] (pig, plasma, iv, 0.5 mg/kg, pig 1, Time 0.00 hr, i.v. bolus 0.5 mg/kg of SD209, read-out: plasma conc.) was less than 2 ng/mL; in series [4] (pig, plasma, iv, 0.5 mg/kg, pig 2, Time 0.00 hr, i.v. bolus 0.5 mg/kg of SD209, read-out: plasma conc.), less than 2 ng/mL. For the same molecule, the concentration at 0.1 h is 60 ng/mL in series [4] (pig, plasma, iv, 0.5 mg/kg, pig 1, Time 0.1 hr, i.v. bolus 0.5 mg/kg of SD209, read-out: plasma conc.) and 20 ng/mL in series [4] (pig, plasma, iv, 0.5 mg/kg, pig 2, Time 0.1 hr, i.v. bolus 0.5 mg/kg of SD209, read-out: plasma conc.). Moreover, the concentration at 0.25 h in series [4] (pig, plasma, iv, 0.5 mg/kg, pig 1, Time 0.25 hr, i.v. bolus 0.5 mg/kg of SD209, read-out: plasma conc.) stood at 20 ng/mL; in series [4] (pig, plasma, iv, 0.5 mg/kg, pig 2, Time 0.25 hr, i.v. bolus 0.5 mg/kg of SD209, read-out: plasma conc.), 3 ng/mL. In series [4] (pig, plasma, iv, 0.5 mg/kg, pig 2, Time 0.5 hr, i.v. bolus 0.5 mg/kg of SD209, read-out: plasma conc.), the concentration at 0.5 h was less than 2 ng/mL. Moreover, the “in vivo conversion of prodrug to SM256 in the circulation” value in series [4] (pigs, i.v. 0.5 mg/kg) was “quantitatively converted to SM256”.
For `COC(=O)C(CNC(=O)c1ccc2c(cnn2CCCNc2ncc[nH]2)c1)NS(=O)(=O)c1c(C)cc(C)cc1C` (centres unmarked) [SM192], the figures for the “Electrophoretic Mobility” value in series [1] (pH 4.5 acetate buffer 50 mM), in series [1] (pH 6.0 MES buffer 50 mM) and in series [1] (pH 8.0 TRIS buffer 50 mM) were 1.7 (cm^2 /v/sec) × 10^-4, 1.6 (cm^2 /v/sec) × 10^-4 and 1.1 (cm^2 /v/sec) × 10^-4, respectively. The “Surface Tension” value in series [2] (Concentration 0.00015 M) is reported as 73.0 ± 0.2 dynes/cm; in series [2] (Concentration 0.0003 M) it was 73.0 ± 0.2 dynes/cm; in series [2] (Concentration 0.0006 M), 72.3 ± 0.1 dynes/cm; in series [2] (Concentration 0.001 M), 69.3 ± 0.6 dynes/cm; in series [2] (Concentration 0.0015 M), 69.1 ± 0.6 dynes/cm; in series [2] (Concentration 0.003 M), 61.7 ± 0.2 dynes/cm. Moreover, the “Surface Tension” value in series [2] (Concentration 0.006 M) stood at 56.9 ± 0.4 dynes/cm; in series [2] (Concentration 0.010 M), 53.5 ± 0.3 dynes/cm; in series [2] (Concentration 0.015 M) it was 51.5 ± 0.1 dynes/cm; in series [2] (Concentration 0.030 M) it was 50.4 ± 0.2 dynes/cm; in series [2] (Concentration 0.045 M) it was 49.8 ± 0.4 dynes/cm; in series [2] (Concentration 0.054 M), 50.0 ± 0.6 dynes/cm. Also, in series [2] (Concentration 0.06 M), the “Surface Tension” value came to 49.5 ± 0.3 dynes/cm. For the same molecule, the “critical micelle concentration (CMC)” value in series [2] (from surface tension vs concentration) is ~ 16 mM and ~ 11 mg/mL. Also, the chromatographic logP in series [3] was 3.73.
For the molecule `Cc1cc(C)c(S(=O)(=O)NC(CNC(=O)c2ccc3c(cnn3CCCNc3ncc[nH]3)c2)C(=O)O)c(C)c1` (centres unmarked) [SM256], the plasma conc. result in series [4] (setting [5]), in series [4] (setting [6]), in series [4] (setting [7]), in series [4] (setting [8]), in series [4] (setting [9]) and in series [4] (setting [10]) was “BQL” each time. Besides, the plasma conc. result in series [4] (setting [11]) was “BQL”.
